{"source": "patent US20060025390A1", "about": "“Treatment of hormone allergy and related symptoms and disorders” (priority 2004, published 2006)", "key": {"[1]": {"test_system": "patients experiencing hormone allergy symptoms", "test": "Clinical responses of hormone allergy symptoms to intradermal dilute progesterone (or estrogen)", "type": "in vivo, human", "details": "for % of Patients who Respond: any relief of symptom; for % Improvement in Responding Patients: average of patients' estimates", "source_text": "Patients experiencing several hormone allergy symptoms experienced relief when administered dilute doses of progesterone either sublingually or intradermally.\nThe symptoms measured were irritation or pain in the neck, nose, eyes, throat, ear, skin, back, hips, upper extremities and lower extremities, headache, and shortness of breath. […]\nPatients were designated as responding patients in Table 1 if they experienced any relief of the indicated symptom. Patients were also asked to estimate the amount of improvement in the symptom, an average of which is\nIn Table 2 the probability that positive results (i.e. patients responding to treatment) were due to random effects was calculated using standard statistical analysis of patient tests. It was assumed that if the treatment has no effect, there is a 50% chance that a patient will indicate a positive response and a 50% chance that a patient will indicate a negative response. From this assumption, coupled with the actual data, one may calculate the probability that positive responses are due to an actual effect of the treatment and not simply random effects. In general, results with a less than 1% chance of being random are considered highly significant. Results with a less than 5% chance of being random are normally conclusively labeled as nonrandom. Thus, the results observed for most of the symptoms in Table 2 are highly significant, with only the results for ear irritation and pain falling merely in the nonrandom category.\nHormone samples may be prepared in any way suitable for the intended administration route. For administration through intradermal injection, samples may be prepared as they were in the studies of Examples 2 and 3. Specifically, the progesterone was formulated from commercially available injectable progesterone. Each ml of the final formulation contained […] of progesterone and 10% benzyl alcohol as a preservative in sesame oil. 0.1 ml was administered per patient intradermally. Estrogen samples were similarly prepared."}, "[2]": {"test_system": "serum IgM anti-17-α-hydroxyprogesterone antibodies", "test": "ELISA binding of IgM 17-α-hydroxyprogesterone antibodies to different hormones in solid phase", "set-up": "species or system human", "details": "for IgM binding (optical density): hormone in solid phase, 405 nm; for IgM % reaction: relative to 17-α-hydroxyprogesterone = 100", "experimental": "(§1) The ELISA inhibition method was used to determine specificity and cross-reactivity between different hormones and to ensure the degree of human IgG, IgM and IgE estrogen or progesterone binding to estrogen or progesterone in solid phase. […] 100 μl of sera from three different patients with high IgG, IgM or IgE antibodies against 17-α-hydroxyprogesterone was added to all wells. After shaking and incubation for 1 hr at room temperature, addition of enzyme labeled anti-human IgG, IgM or IgE, repeat of incubation, washing, and addition of substrate, color development was measured at 405 nm. Results were calculated as percentage of anti-17-α-hydroxyprogesterone binding to 17-α-hydroxyprogesterone and other hormones. Also, anti-estrogen binding to estrogen and other hormones in solid phase by progesterone in liquid phase was performed and calculated in a similar manner.\n(§2) Human sera containing 17-α-hydroxyprogesterone IgG-, IgM- and IgE-binding antibodies were reacted against progesterone, estrogen, hydrocortisone and cholesterol. In comparison to 100% binding of anti-17-α-hydroxyprogesterone-binding to 17-α-hydroxyprogesterone, the IgG anti-17-α-hydroxyprogesterone-binding to progesterone, estrogen, hydrocortisone and cholesterol was 69-77%, 25-30%, 39-53%, and less than 10% respectively (Table 4). The % binding of serum IgM and IgE anti-17-α-hydroxyprogesterone to 17-1-hydroxyprogesterone, progesterone, estrogen, hydrocortisone and cholesterol was similar to the binding of IgG. This binding of anti-17-α-hydroxyprogesterone to progesterone was the highest, followed by hydrocortisone, then estrogen, to almost no binding with cholesterol. Similar to this, human sera with IgG, IgM and IgE binding antibodies against estrogen were reacted with progesterone, 17-α-hydroxyprogesterone, hydrocortisone and cholesterol, in the presence of estrogen."}, "[3]": {"test_system": "serum IgE anti-17-α-hydroxyprogesterone antibodies", "test": "ELISA binding of IgE 17-α-hydroxyprogesterone antibodies to different hormones in solid phase", "set-up": "species or system human", "details": "for IgE binding (optical density): hormone in solid phase, 405 nm; for IgE % reaction: relative to 17-α-hydroxyprogesterone = 100", "experimental": "as §1, §2"}, "[4]": {"details": "Back, of 58 patients with symptom (Table 2)"}, "[5]": {"details": "Ear, of 35 patients with symptom (Table 2)"}, "[6]": {"details": "Eyes, of 94 patients with symptom (Table 2)"}, "[7]": {"details": "Headache, of 105 patients with symptom (Table 2)"}, "[8]": {"details": "Hips, of 26 patients with symptom (Table 2)"}, "[9]": {"details": "Lower Extremity, 0.5 mg intradermally"}, "[10]": {"details": "Lower Extremity, of 51 patients with symptom (Table 2)"}, "[11]": {"details": "Neck, of 146 patients with symptom (Table 2)"}, "[12]": {"details": "Nose, of 112 patients with symptom (Table 2)"}, "[13]": {"details": "Shortness of Breath, 0.5 mg intradermally"}, "[14]": {"details": "Shortness of Breath, of 144 patients with symptom (Table 2)"}, "[15]": {"details": "Skin, of 35 patients with symptom (Table 2)"}, "[16]": {"details": "Throat, of 94 patients with symptom (Table 2)"}, "[17]": {"details": "Upper Extremity, 0.5 mg intradermally"}, "[18]": {"details": "Upper Extremity, of 63 patients with symptom (Table 2)"}}}
{"smiles": "CC(=O)[C@H]1CC[C@H]2[C@@H]3CCC4=CC(=O)CC[C@]4(C)[C@H]3CC[C@]12C", "note": "[Progesterone, progesterone]", "values": [{"measurement": "% of Patients who Respond", "setting": "[1]; Back, 0.5 mg intradermally", "result": 82, "unit": "%"}, {"measurement": "% Improvement in Responding Patients", "setting": "[1]; Back, 0.5 mg intradermally", "result": 72, "unit": "%"}, {"measurement": "# of Responding Patients", "setting": "[1]; Back, 0.5 mg intradermally, of 57 patients (Table 1)", "result": 47}, {"measurement": "# of Responding Patients", "setting": "[1]; [4]", "result": 48}, {"measurement": "# of non-Responding Patients", "setting": "[1]; [4]", "result": 10}, {"measurement": "% of Patients who Respond", "setting": "[1]; Ear, 0.5 mg intradermally", "result": 66, "unit": "%"}, {"measurement": "% Improvement in Responding Patients", "setting": "[1]; Ear, 0.5 mg intradermally", "result": 25, "unit": "%"}, {"measurement": "# of Responding Patients", "setting": "[1]; Ear, 0.5 mg intradermally, of 35 patients (Table 1)", "result": 23}, {"measurement": "# of Responding Patients", "setting": "[1]; [5]", "result": 23}, {"measurement": "# of non-Responding Patients", "setting": "[1]; [5]", "result": 12}, {"measurement": "% of Patients who Respond", "setting": "[1]; Eyes, 0.5 mg intradermally", "result": 81, "unit": "%"}, {"measurement": "% Improvement in Responding Patients", "setting": "[1]; Eyes, 0.5 mg intradermally", "result": 57, "unit": "%"}, {"measurement": "# of Responding Patients", "setting": "[1]; Eyes, 0.5 mg intradermally, of 90 patients (Table 1)", "result": 73}, {"measurement": "# of Responding Patients", "setting": "[1]; [6]", "result": 75}, {"measurement": "# of non-Responding Patients", "setting": "[1]; [6]", "result": 19}, {"measurement": "% of Patients who Respond", "setting": "[1]; Headache, 0.5 mg intradermally", "result": 82, "unit": "%"}, {"measurement": "% Improvement in Responding Patients", "setting": "[1]; Headache, 0.5 mg intradermally", "result": 69, "unit": "%"}, {"measurement": "# of Responding Patients", "setting": "[1]; Headache, 0.5 mg intradermally, of 103 patients (Table 1)", "result": 84}, {"measurement": "# of Responding Patients", "setting": "[1]; [7]", "result": 85}, {"measurement": "# of non-Responding Patients", "setting": "[1]; [7]", "result": 20}, {"measurement": "% of Patients who Respond", "setting": "[1]; Hips, 0.5 mg intradermally", "result": 92, "unit": "%"}, {"measurement": "% Improvement in Responding Patients", "setting": "[1]; Hips, 0.5 mg intradermally", "result": 79, "unit": "%"}, {"measurement": "# of Responding Patients", "setting": "[1]; Hips, 0.5 mg intradermally, of 26 patients (Table 1)", "result": 24}, {"measurement": "# of Responding Patients", "setting": "[1]; [8]", "result": 24}, {"measurement": "# of non-Responding Patients", "setting": "[1]; [8]", "result": 2}, {"measurement": "% of Patients who Respond", "setting": "[1]; [9]", "result": 79, "unit": "%"}, {"measurement": "% Improvement in Responding Patients", "setting": "[1]; [9]", "result": 76, "unit": "%"}, {"measurement": "# of Responding Patients", "setting": "[1]; Lower Extremity, 0.5 mg intradermally, of 61 patients (Table 1)", "result": 48}, {"measurement": "# of Responding Patients", "setting": "[1]; [10]", "result": 43}, {"measurement": "# of non-Responding Patients", "setting": "[1]; [10]", "result": 8}, {"measurement": "% of Patients who Respond", "setting": "[1]; Neck, 0.5 mg intradermally", "result": 72, "unit": "%"}, {"measurement": "% Improvement in Responding Patients", "setting": "[1]; Neck, 0.5 mg intradermally", "result": 62, "unit": "%"}, {"measurement": "# of Responding Patients", "setting": "[1]; Neck, 0.5 mg intradermally, of 144 patients (Table 1)", "result": 104}, {"measurement": "# of Responding Patients", "setting": "[1]; [11]", "result": 106}, {"measurement": "# of non-Responding Patients", "setting": "[1]; [11]", "result": 40}, {"measurement": "% of Patients who Respond", "setting": "[1]; Nose, 0.5 mg intradermally", "result": 82, "unit": "%"}, {"measurement": "% Improvement in Responding Patients", "setting": "[1]; Nose, 0.5 mg intradermally", "result": 63, "unit": "%"}, {"measurement": "# of Responding Patients", "setting": "[1]; Nose, 0.5 mg intradermally, of 109 patients (Table 1)", "result": 89}, {"measurement": "# of Responding Patients", "setting": "[1]; [12]", "result": 92}, {"measurement": "# of non-Responding Patients", "setting": "[1]; [12]", "result": 20}, {"measurement": "% of Patients who Respond", "setting": "[1]; [13]", "result": 87, "unit": "%"}, {"measurement": "% Improvement in Responding Patients", "setting": "[1]; [13]", "result": 67, "unit": "%"}, {"measurement": "# of Responding Patients", "setting": "[1]; Shortness of Breath, 0.5 mg intradermally, of 142 patients (Table 1)", "result": 124}, {"measurement": "# of Responding Patients", "setting": "[1]; [14]", "result": 126}, {"measurement": "# of non-Responding Patients", "setting": "[1]; [14]", "result": 18}, {"measurement": "% of Patients who Respond", "setting": "[1]; Skin, 0.5 mg intradermally", "result": 79, "unit": "%"}, {"measurement": "% Improvement in Responding Patients", "setting": "[1]; Skin, 0.5 mg intradermally", "result": 74, "unit": "%"}, {"measurement": "# of Responding Patients", "setting": "[1]; Skin, 0.5 mg intradermally, of 34 patients (Table 1)", "result": 27}, {"measurement": "# of Responding Patients", "setting": "[1]; [15]", "result": 27}, {"measurement": "# of non-Responding Patients", "setting": "[1]; [15]", "result": 8}, {"measurement": "% of Patients who Respond", "setting": "[1]; Throat, 0.5 mg intradermally", "result": 76, "unit": "%"}, {"measurement": "% Improvement in Responding Patients", "setting": "[1]; Throat, 0.5 mg intradermally", "result": 64, "unit": "%"}, {"measurement": "# of Responding Patients", "setting": "[1]; Throat, 0.5 mg intradermally, of 92 patients (Table 1)", "result": 70}, {"measurement": "# of Responding Patients", "setting": "[1]; [16]", "result": 71}, {"measurement": "# of non-Responding Patients", "setting": "[1]; [16]", "result": 23}, {"measurement": "% of Patients who Respond", "setting": "[1]; [17]", "result": 80, "unit": "%"}, {"measurement": "% Improvement in Responding Patients", "setting": "[1]; [17]", "result": 75, "unit": "%"}, {"measurement": "# of Responding Patients", "setting": "[1]; Upper Extremity, 0.5 mg intradermally, of 50 patients (Table 1)", "result": 40}, {"measurement": "# of Responding Patients", "setting": "[1]; [18]", "result": 50}, {"measurement": "# of non-Responding Patients", "setting": "[1]; [18]", "result": 13}, {"measurement": "effectiveness in relieving hormone allergy symptoms compared to several other antigens", "setting": "[1]; dilute doses sublingually or intradermally", "result": "most effective"}, {"measurement": "IgM binding (optical density)", "setting": "[2]; sample 1", "result": 0.8}, {"measurement": "IgM % reaction", "setting": "[2]; sample 1", "result": "−61", "unit": "%"}, {"measurement": "IgM binding (optical density)", "setting": "[2]; sample 2", "result": 0.79}, {"measurement": "IgM % reaction", "setting": "[2]; sample 2", "result": "−77", "unit": "%"}, {"measurement": "IgM binding (optical density)", "setting": "[2]; sample 3", "result": 0.72}, {"measurement": "IgM % reaction", "setting": "[2]; sample 3", "result": "−78", "unit": "%"}, {"measurement": "IgE binding (optical density)", "setting": "[3]; sample 1", "result": 0.94}, {"measurement": "IgE % reaction", "setting": "[3]; sample 1", "result": "−65", "unit": "%"}, {"measurement": "IgE binding (optical density)", "setting": "[3]; sample 2", "result": 1.7}, {"measurement": "IgE % reaction", "setting": "[3]; sample 2", "result": "−71", "unit": "%"}, {"measurement": "IgE binding (optical density)", "setting": "[3]; sample 3", "result": 0.82}, {"measurement": "IgE % reaction", "setting": "[3]; sample 3", "result": "−77", "unit": "%"}]}
